“Also recorded” adds a separate entry of the source. Like-named read-outs stand apart in the source and are kept apart here.
Key:
[1] = Cytotoxicity against mammalian cells (MTT assay); type: cell-based; conditions: mouse, NCTC clone 929 cells, highest concentration 200 μM
Procedure: (§1) Macrophages were collected from the peritoneal cavity of female BALB/c mice by washing with RPMI-1640 without phenol red, supplemented with 10% FBS at 37 °C in a humidified atmosphere containing 5% CO2. NCTC (clone 929) cells were maintained in RPMI-1640 (without phenol red and supplemented with 10% FBS) at 37 °C in the same conditions of the peritoneal macrophages.
The 50% cytotoxic concentration (CC50) was determined in NCTC clone 929 cells. NCTC cells were seeded at 6 × 10^4 cells/well in 96-well microplates and incubated with serial dilutions of the tested compounds or standard drug (miltefosine) to the highest concentration of 200 μM for 48 h at 37 °C in a 5% CO2-humidified incubator. An MTT assay determined the viability of the cells at 570 nm. The selectivity index (SI) was determined considering the following equation: CC50 NCTC cells/IC50 parasites.
(§2) The data obtained represent the mean and standard deviation of duplicate samples from at least three independent assays. IC50 and CC50 values were calculated using sigmoid dose–response curves in Graph Pad Prism 5.0 software (GraphPad Software, San Diego, CA, USA).

[2] = system: intracellular amastigote forms of Leishmania (L.) infantum; test: Activity against L. (L.) infantum intracellular amastigotes in infected peritoneal macrophages; type: cell-based; conditions: for SI (selectivity index): CC50 NCTC cells/IC50 parasites; for IC50 / IC50 L. (L.) infantum: 96 h; for IC50: read-out: IC50 L. (L.) infantum
Procedure: L. (L.) infantum (MHOM/BR/1972/LD) was maintained through successive passages in golden hamsters up to 60–70 days post-infection. Amastigotes were harvested from spleens of infected hamsters by differential centrifugation.
as §1
The 50% inhibitory concentrations (IC50) against intracellular amastigotes for tested compounds were determined in infected macrophages. Peritoneal macrophages were obtained as described in the Section 3.6.3, and L. (L.) infantum amastigotes were obtained from spleens of infected hamsters by differential centrifugation. Peritoneal macrophages were seeded at 1 × 10^5 cells per well in Nunc™ 16-well slide chambers (Aldrich, St. Louis, MO, USA) for 24 h at 37 °C in a 5% CO2-humidified incubator. Next, amastigotes were isolated from a spleen of an infected hamster as described, counted, seeded at a 1:10 macrophages/amastigotes ratio, and incubated for 24 h. Non-internalized parasites were removed by washing twice with a culture medium. Then, the macrophages were incubated with compounds or standard drug (miltefosine) in a range of 100 to 0.78 μM for 96 h at 37 °C in a 5% CO2-humidified incubator, using miltefosine as a standard drug. At the end of the assay, the cells were fixed in methanol, stained with Giemsa, and observed under a digital light microscope (EVOS M5000, Thermo, Waltham, MA, USA) to determine the number of infected macrophages out of 400 cells.
as §2

[3] = Peritoneal macrophage, intracellular amastigotes in BALB/c peritoneal macrophages, 100 to 0.78 μM, NA: non-active
[4] = intracellular amastigotes in BALB/c peritoneal macrophages, 100 to 0.78 μM, NA: non-active

Structure (SMILES) | CC50 at 48 h [1] [µM] | SI (selectivity index) [2] | IC50 [2, 3] [µM] | IC50 [2, 4] [µM] | IC50 ([2]; Peritoneal macrophage) [µM] | IC50 L. (L.) infantum [2, 4]
C=CCCCCCCC#CCCCCCCCCCC[C@@H]1C(=O)O[C@H](C)[C@@H]1O [Compound 1, (2S,3R,4R)-3-hydroxy-4-methyl-2-(n-eicos-11′-yn-19′-enyl)butanolide] | > 200 | >6.7 | 29.9 ± 9.7 |  |  | 
C=CCCCCCCC#CCCCCCCCCCC[C@@H]1C(=O)O[C@H](C)[C@@H]1OC(C)=O [Compound 1a, (2S,3R,4R)-3-Acetoxy-4-methyl-2-(n-eicos-11′-yn-19′-enil)butanolide] | > 200 | >4.6 | 43.3 | 43.4 ± 3.9 |  | 
C=CCCCCCCC#CCCCCCCCCCCC1=C[C@@H](C)OC1=O [Compound 1b, 4R-Methyl-2-(n-eicos-11′-yn-19′-enil)but-2-enolide] | > 200 | >8.6 |  |  | 23.1 ± 5.4 | 
CCCCCCCCC#CCCCCCCCCCC[C@@H]1C(=O)O[C@H](C)[C@@H]1O [Compound 2, (2S,3R,4R)-3-hydroxy-4-methyl-2-(n-eicos-11′-ynyl)butanolide] | > 200 |  | > 100 |  |  | inactive
CCCCCCCCC#CCCCCCCCCCC[C@@H]1C(=O)O[C@H](C)[C@@H]1OC(C)=O [Compound 2a, (2S,3R,4R)-3-Acetoxy-4-methyl-2-(n-eicos-11′-ynil)butanolide] | > 200 |  |  |  |  | no activity
CCCCCCCCC#CCCCCCCCCCCC1=C[C@@H](C)OC1=O [Compound 2b, 4R-Methyl-2-(n-eicos-11′-ynil)but-2-enolide] | > 200 |  |  |  |  | no activity
CCCCCCCCCCCCCCCCCCCCC1C(=O)OC(C)C1O [Compound 3, (2S,3R,4R)-3-Hydroxy-4-methyl-2-(n-eicosanil)butanolide] | > 200 |  | > 100 |  |  | lack of activity; also recorded: no activity
CCCCCCCCCCCCCCCCCCCCC1C(=O)OC(C)C1OC(C)=O [Compound 3a, (2S,3R,4R)-3-Acetoxy-4-methyl-2-(n-eicosanil)butanolide] | > 200 |  |  |  |  | lack of activity; also recorded: no activity
CCCCCCCCCCCCCCCCCCCCC1=C[C@@H](C)OC1=O [Compound 3b, 4R-Methyl-2-(n-eicosanil)but-2-enolide] | > 200 |  |  |  |  | lack of activity; also recorded: no activity
CCCCCCCCCCCCCCCCOP(=O)([O-])OCC[N+](C)(C)C [Miltefosine, reference compound] | 116 ± 5.3 | 6.5 | 17.8 ± 1.4 |  |  | 

Reference: PMC8838408, “Antileishmanial Effects of Acetylene Acetogenins from Seeds of Porcelia macrocarpa (Warm.) R.E. Fries (Annonaceae) and Semisynthetic Derivatives” (Molecules, 2022)
